Results: US20240400555A1 (Initial Therapeutics, Inc., priority 2023, published 2024)

test system: HCT-116 Firefly-luciferase reporter cells; experiment: Cellular c-MYC Reporter Assay; type: cell-based; conditions: Homo sapiens; untitled table following Table 8a; HCT-116 Firefly-luciferase reporter cells, 24 h; read-out: pIC50 (converted)
Method in brief: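 Reporter cells seeded at 5e4 cells/mL in McCoy's 5A with 10% FBS and G418, dosed after 4–6 h at 0.2% final DMSO. After 24 h at 37 °C, luciferase luminescence was read with ONE-Glo.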

IC50 [nM]	SMILES
3310	Cc1cccc2ccnc(N(C(=O)c3ccc(Nc4ncccn4)cc3F)[C@@H]3CCCCNC3)c12 [Example 185, (R)—N-(azepan-3-yl)-2-fluoro-N-(8-methylisoquinolin-1-yl)-4-(pyrimidin-2-ylamino)benzamide]
61.7	Cc1cc(C)c2c(N(C(=O)c3ccc(-n4nnc5cccnc54)cc3F)[C@@H]3CCCNC3)nccc2c1 [Example 254, (R)-4-(3H-[1,2,3]triazolo[4,5-b]pyridin-3-yl)-N-(6,8-dimethylisoquinolin-1-yl)-2-fluoro-N-(piperidin-3-yl)benzamide]
> 10000	Cc1cccc2ccnc(N(C(=O)c3ccc(-c4nnn[nH]4)cc3)[C@H]3CCCNC3)c12 [Example 128, (S)—N-(8-methylisoquinolin-1-yl)-N-(piperidin-3-yl)-4-(1H-tetrazol-5-yl)benzamide]
5370	Cc1cccc2ccnc(N(C(=O)N3CCCC(C)(c4ccccc4)C3)[C@@H]3CCCNC3)c12 (stereo partly drawn) [Example 267, 3-methyl-N-(8-methylisoquinolin-1-yl)-3-phenyl-N—((R)-piperidin-3-yl)piperidine-1-carboxamide]
4790	Cc1cccc2ccnc(N(C(=O)c3ccc(-n4nnc5cccnc54)cc3)[C@H]3CNC[C@@H](C)C3)c12 [Example 225, 4-(3H-[1,2,3]triazolo[4,5-b]pyridin-3-yl)-N-(8-methylisoquinolin-1-yl)-N-((3R,5S)-5-methylpiperidin-3-yl)benzamide]
2000	Cc1cccc2ccnc(N(C(=O)N3CCN(c4nncc5ccccc45)CC3)[C@@H]3CCCNC3)c12 [Example 270]
269	Cc1cccc2ccnc(N(C(=O)c3ccc(-c4cnn5cccnc45)cc3F)[C@@H]3CCCNC3)c12 [Example 215, (R)-2-fluoro-N-(8-methylisoquinolin-1-yl)-N-(piperidin-3-yl)-4-(pyrazolo[1,5-a]pyrimidin-3-yl)benzamide]
2290	O=C(c1ccc(-n2nnc3cccnc32)cc1F)N(c1nccc2ccc(-c3cncnc3)cc12)[C@@H]1CCCNC1 [Example 150, (R)-4-(3H-[1,2,3]triazolo[4,5-b]pyridin-3-yl)-2-fluoro-N-(piperidin-3-yl)-N-(7-(pyrimidin-5-yl)isoquinolin-1-yl)benzamide]
44.7	Cc1cccc2ccnc(N(C(=O)c3ccc(-n4nnc5ccc(-c6cc[nH]n6)nc54)cc3F)[C@@H]3CCCNC3)c12 [Example 138, (R)-4-(5-(1H-pyrazol-3-yl)-3H-[1,2,3]triazolo[4,5-b]pyridin-3-yl)-2-fluoro-N-(8-methylisoquinolin-1-yl)-N-(piperidin-3-yl)benzamide]
97.7	N#Cc1cccc2ccnc(N(C(=O)c3ccc(-n4nnc5cccnc54)cc3F)[C@@H]3CCCNC3)c12 [Example 164, (R)-4-(3H-[1,2,3]triazolo[4,5-b]pyridin-3-yl)-N-(8-cyanoisoquinolin-1-yl)-2-fluoro-N-(piperidin-3-yl)benzamide]
295	Cc1cccc2ccnc(N(C(=O)c3ccc(-n4nnc(C(C)C)n4)cc3F)[C@@H]3CCCNC3)c12 [Example 285, (R)-2-fluoro-4-(5-isopropyl-2H-tetrazol-2-yl)-N-(8-methylisoquinolin-1-yl)-N-(piperidin-3-yl) benzamide]
5890	CC1(c2ccno2)CCN(C(=O)N(c2cc3ccccc3cn2)[C@@H]2CCCNC2)CC1 [Example 190, (R)—N-(isoquinolin-3-yl)-4-(isoxazol-5-yl)-4-methyl-N-(piperidin-3-yl)piperidine-1-carboxamide]
5890	Cc1cccc2ccnc(N(C(=O)N3CC=C(c4ccccc4)CC3)[C@@H]3CCCNC3)c12 [Example 287, (R)—N-(8-methylisoquinolin-1-yl)-4-phenyl-N-(piperidin-3-yl)-3,6-dihydropyridine-1(2H)-carboxamide]
437	Cc1cccc2ccnc(N(C(=O)c3ccc(-c4cnn(C)c4)cc3)[C@@H]3CCCNC3)c12 [Example 239, (R)-4-(1-methyl-1H-pyrazol-4-yl)-N-(8-methylisoquinolin-1-yl)-N-(piperidin-3-yl)benzamide]
617	Cc1cccc2ccnc(N(C(=O)c3ccc(-c4cncc(C#N)n4)cc3F)[C@@H]3CCCNC3)c12 [Example 198, (R)-2-fluoro-N-(8-methylisoquinolin-1-yl)-4-(6-cyanopyrazin-2-yl)-N-(piperidin-3-yl)benzamide]
3890	Cc1cccc2ccnc(N(C(=O)c3ccc(N)cc3F)[C@@H]3CCCNC3)c12 [Example 124, (R)-4-amino-2-fluoro-N-(8-methylisoquinolin-1-yl)-N-(piperidin-3-yl) benzamide]
355	O=C(c1ccc(-n2nnc3cccnc32)cc1F)N(c1ncccc1-c1ccsc1)[C@@H]1CCCNC1 [Example 177, (R)-4-(3H-[1,2,3]triazolo[4,5-b]pyridin-3-yl)-2-fluoro-N-(piperidin-3-yl)-N-(3-(thiophen-3-yl)pyridin-2-yl)benzamide]

IC50 [nM]	SMILES
724	O=C(c1ccc(-n2nnc3cccnc32)cc1F)N(c1nccc2cc(Br)ccc12)[C@@H]1CCCNC1 [Example 143, (R)-4-(3H-[1,2,3]triazolo[4,5-b]pyridin-3-yl)-N-(6-bromoisoquinolin-1-yl)-2-fluoro-N-(piperidin-3-yl)benzamide]
8510	Cc1cccc2ccnc(N(C(=O)c3ccc(-n4nccn4)cc3)[C@@H]3CCCNC3)c12 [Example 235, (R)—N-(8-methylisoquinolin-1-yl)-N-(piperidin-3-yl)-4-(2H-1,2,3-triazol-2-yl)benzamide]
> 5890	O=C(c1ccc(-n2nnc3cccnc32)cc1F)N(c1ncccc1/C=C/CO)[C@@H]1CCCNC1 [Example 289, (R,E)-4-(3H-[1,2,3]triazolo[4,5-b]pyridin-3-yl)-2-fluoro-N-(3-(3-hydroxyprop-1-en-1-yl)pyridin-2-yl)-N-(piperidin-3-yl)benzamide]
72.4	Cc1nnn(-c2ccc(C(=O)N(c3nccc4cccc(C)c34)[C@@H]3CCCNC3)cc2)n1 [Example 179, (R)-4-(5-methyl-2H-tetrazol-2-yl)-N-(8-methylisoquinolin-1-yl)-N-(piperidin-3-yl)benzamide]
490	COC(=O)c1ccc2c(N(C(=O)c3ccc(-n4nnc5cccnc54)cc3F)[C@@H]3CCCNC3)nccc2c1 [Example 117, methyl (R)-1-(4-(3H-[1,2,3]triazolo[4,5-b]pyridin-3-yl)-2-fluoro-N-(piperidin-3-yl)benzamido)isoquinoline-6-carboxylate]
891	Cc1nccnc1-c1ccc(C(=O)N(c2nccc3cccc(Cl)c23)[C@@H]2CCCNC2)c(F)c1 [Example 182, (R)—N-(8-chloroisoquinolin-1-yl)-2-fluoro-4-(3-methylpyrazin-2-yl)-N-(piperidin-3-yl)benzamide]
537	O=C(c1ccc(-n2nnc3cccnc32)cc1F)N(c1nccc2cc(-c3cn[nH]c3)ccc12)[C@@H]1CCCNC1 [Example 106, (R)—N-(6-(1H-pyrazol-4-yl)isoquinolin-1-yl)-4-(3H-[1,2,3]triazolo[4,5-b]pyridin-3-yl)-2-fluoro-N-(piperidin-3-yl)benzamide]
447	O=C(c1ccc(-n2nnc3cccnc32)cc1F)N(c1nccc2sc(-c3cn[nH]c3)cc12)[C@@H]1CCCNC1 [Example 160, (R)—N-(2-(1H-pyrazol-4-yl)thieno[3,2-c]pyridin-4-yl)-4-(3H-[1,2,3]triazolo[4,5-b]pyridin-3-yl)-2-fluoro-N-(piperidin-3-yl)benzamide]
490	Cc1cc(C)c2c(N(C(=O)N3CCC(c4cc(C)no4)CC3)[C@@H]3CCCNC3)nccc2c1 [Example 278, (R)—N-(6,8-dimethylisoquinolin-1-yl)-4-(3-methylisoxazol-5-yl)-N-(piperidin-3-yl)piperidine-1-carboxamide]
372	Cc1cncc(-c2ccc(C(=O)N(c3nccc4cccc(C)c34)[C@@H]3CCCNC3)c(F)c2)n1 [Example 202, (R)-2-fluoro-N-(8-methylisoquinolin-1-yl)-4-(6-methylpyrazin-2-yl)-N-(piperidin-3-yl)benzamide]
33.1	O=C(c1ccc(-n2nnc3cccnc32)cc1F)N(c1nccc2cccc(Cl)c12)[C@@H]1CCCNC1 [Example 246, (R)-4-(3H-[1,2,3]triazolo[4,5-b]pyridin-3-yl)-N-(8-chloroisoquinolin-1-yl)-2-fluoro-N-(piperidin-3-yl)benzamide]
513	Cc1cccc2ccnc(N(C(=O)c3ccc(-c4cn(C)nn4)cc3)[C@@H]3CCCNC3)c12 [Example 111, (R)-4-(1-methyl-1H-1,2,3-triazol-4-yl)-N-(8-methylisoquinolin-1-yl)-N-(piperidin-3-yl) benzamide]
50.1	COc1ccc2nnn(-c3ccc(C(=O)N(c4nccc5cccc(C)c45)[C@@H]4CCCNC4)c(F)c3)c2n1 [Example 187, (R)-2-fluoro-4-(5-methoxy-3H-[1,2,3]triazolo[4,5-b]pyridin-3-yl)-N-(8-methylisoquinolin-1-yl)-N-(piperidin-3-yl)benzamide]
7080	N#Cc1ccc2ccnc(N(C(=O)c3ccc(-n4nnc5cccnc54)cc3F)[C@@H]3CCCNC3)c2c1 [Example 156]
5750	NC(=O)c1ccc2ccnc(N(C(=O)c3ccc(-n4nnc5cccnc54)cc3F)[C@@H]3CCCNC3)c2c1 [Example 155, (R)-1-(4-(3H-[1,2,3]triazolo[4,5-b]pyridin-3-yl)-2-fluoro-N-(piperidin-3-yl)benzamido)isoquinoline-7-carboxamide]
5890	Cc1cccc2ccnc(N(C(=O)N3CCC(n4c(=O)ccc5ccccc54)CC3)[C@@H]3CCCNC3)c12 [Example 268, (R)—N-(8-methylisoquinolin-1-yl)-4-(2-oxoquinolin-1(2H)-yl)-N-(piperidin-3-yl)piperidine-1-carboxamide]
479	Cc1cccc2ccnc(N(C(=O)c3ccc(-c4cnccn4)cc3F)[C@@H]3CCCNC3)c12 [Example 204, (R)-2-fluoro-N-(8-methylisoquinolin-1-yl)-N-(piperidin-3-yl)-4-(pyrazin-2-yl)benzamide]
